This is an account of results in patent EP3354264A1, “PROPHYLAXIS AND TREATMENT OF NEISSERIA GONORRHOEAE EYE INFECTION” (Kingston University Higher Education Corporation, priority 2017, dated 2018).

The test system of data set [1] is Bovine eyes. Particulars: test compounds 1 mM in saline, controls as labelled, exposure 30 seconds. The protocol:
Bovine eyes were collected from a local slaughter house (ABP, Guildford, Surrey, UK) and were transported in cold saline for testing at the laboratory. Each eye was first examined for signs of damage before use. The test was conducted according to Abdelkader et al., (2012), Int J Pharm 432: 1-10. The exposure time of the test substances was 30 seconds. The selected bactericidal compounds were tested at a concentration of 1 mM in saline. Overall, the concentration of ethanol carry-over from the stock of the organic acids was therefore 1 %. […] The test area of the cornea was then washed with 10 ml saline.
Corneal damage to the test area was assessed by fluorescein staining and examined under a cobalt blue filter. […] Each of the seven candidates were tested in triplicate, each test was performed on a separate day from a different batch of eye balls. Corneal histology was done as Abdelkader et al., (2012), Int J Pharm 432: 1-10 by evaluating the damage to the epithelial layer and stroma of the cornea after Haematoxylin and Eosin staining.

Data set [2] has as its system Chorioallantoic Membrane. Particulars: organic acids 1 mg/ml, sodium hydroxide 0.1M; for Total Score: number. Here is the method:
The HET-CAM was performed according to Alany et al., (2006), J Control Release 111: 145-152. Fertilised white leghorn eggs were purchased from Henry Stewart & Co. Ltd (Fakenham, Norfolk, UK) and delivered to Kingston University. All eggs were checked for damage and incubated at 37°C with 60-70 % relative humidity. At day 4 the eggs were removed from their shells and placed in incubation chambers. At day 9, the CAMs were tested. This was done by applying 200 µl of the testing material and recording results at 30, 120, and 300 seconds. At each of these time-points the effect of the substance on the CAM was evaluated by assessing them against the scoring system (Vanerp YHM, et al., (1990), Toxicology in Vitro 4: 267-269).

The test system of data set [3] is Neisseria gonorrhoeae strain NCCP11945. The experiment in a line: Growth inhibition screen of organic acids. The format is cell-based. Particulars: strain NCCP11945, in vitro, 1 mM. Here is the method: (§1) The well characterised N. gonorrhoeae strain NCCP11945 (Chung GT et al. (2008) Complete genome sequence of Neisseria gonorrhoeae NCCP11945. Journal of Bacteriology 190: 6035-6036) was used in the screening stage of this experiment. Eight isolates that were obtained from Public Health England from various European locations were used in the log reduction assays. All isolates were first cultured for 24 hours prior to testing by plating on GC solid medium (Oxoid Limited, Hampshire, UK) with Kellogg supplements and incubating at 37 °C, 5% CO2 (Kellogg DS, Jr., et al., (1963), J Bacteriol 85: 1274-1279).
(§2) A full list of all the organic acids tested in this study is in Table 1. The tested compounds include saturated and unsaturated fatty acids, monoglycerides, dicarboxylic acids, and fatty acid sodium salts. All compounds investigated were resuspended at a concentration of 100 mM in ethanol unless stated. All chemicals were obtained from Sigma-Aldrich (Poole, Dorset, UK).
Other organic acids were also active at this concentration, as noted in Table 1.

The test system is the same in data set [4]. Briefly: Measurement of bactericidal action (log reduction). Particulars: for log reduction at 1000 µM: Neisseria gonorrhoeae. The format is cell-based. Here is the method:
as §1, §2
(§3) Log reductions were done using the same method as in Bergsson et al., (1999), Antimicrob Agents Chemother 43: 2790-2792. Briefly, cells were suspended in GC broth (18 g/L GC Base (Oxiod, Limited) with added defined supplements) to an optical density of 0.3 at 520 nm which is approximately equivalent to 107 - 108 cells per millilitre (Macfarlane DE et al. (1980) Improved media for the culture of Neisseria gonorrhoeae. J Med Microbiol 13: 597-607). Five hundred microliters of the suspension was then added to 5 µl of the 100 mM stocks to give a final concentration of 1 mM. A negative control was also done to calculate the reduction in bacterial titre by adding 500 µl to 5 µl ethanol. The tubes were then mixed at room temperature for two minutes and immediately diluted in a 10 fold dilution series down to 10-4. The dilutions were plated by spreading 10 µl on a quarter of a plate and 100 µl of the neat solution was also plated. Plates were incubated at 37 °C for 48 hours. All samples were plated in duplicate. A reduction in viable cell count by more than 4 log10 was deemed to be bactericidal and was selected for further investigation. Bactericidal compounds were then tested at concentrations of 0.75, 0.5, and 0.25 mM (0.125 mM was also used in some potent compounds) to find the minimum bactericidal concentration. Additional testing at lower concentrations was also done on the eight clinical isolates of European origin.

Data set [5] has as its system panel of nine N. gonorrhoeae isolates (strain NCCP11945 and eight isolates from Public Health England). Briefly: Minimum bactericidal concentration by log reduction, panel of isolates. Format: cell-based. Particulars: Neisseria gonorrhoeae, 2 min, read-out: Minimum bactericidal concentration. Here is the method:
as §1, §3
As shown by the results in Table 3 which presents data on the log reductions of bacterial cell counts, against a panel of nine N. gonorrhoeae isolates (strain NCCP11945 and eight isolates from Public Health England), myristoleic acid (C14:1cΔ9), palmitoleic acid (C16:1cΔ9), linolenic acid (C18:3cΔ9,12,15), and monocaprin (C10) have a minimal bactericidal concentration, defined as the lowest concentration tested to give an average 4 log10 reduction in bacterial count after a two minute exposure, of 0.5 mM. Against a panel of nine N. gonorrhoeae isolates, lauric acid (C12:0), tridecanoic acid (C13:0), and sodium dodecanoate have a minimal bactericidal concentration of 0.75 mM.

Data set [6] can be described thus: in vitro. The format is cell-based, bovine. The note with it: red blood cells. The protocol: (§4) Whole bovine blood was obtained from a local slaughter house (ABP, Guildford, Surrey, UK), adding 90 ml blood to 10 ml of 110 mM tri-sodium citrate anticoagulant. RBCs were isolated the same day. The RBCs were washed by three repeats of centrifugation (1,500 x g for 10 minutes) and resuspension in PBSG. Testing was done following European Union Reference Laboratory for alternatives to animal testing (EURL-ECVAM) guidelines (Lewis RW (2010) DB-ALM Protocol No. 99: Red blood cell (RBC) Test System. EURL ECVAM). The organic acids were made up in DMSO and diluted to a DMSO concentration maximum of 10 % (v/v). Samples were shaken at room temperature for 1 hour and then centrifuged at 10,000 rpm for 2 minutes. An aliquot of 750 µl of the supernatant was taken and absorbance at […] tested.

The test system of data set [7] is RBCs. The experiment in a line: in vitro. The format is cell-based, bovine. The protocol: as §4
Data set [8] concerns Neisseria gonorrhoeae strain NCCP11945. The experiment in a line: Log reduction in artificial tear fluid. The format is cell-based. Particulars: two minute exposure. The protocol: Artificial tear fluid was made as in Mirejovsky et al., Optometry and Vision Science, (1991), 68: 858-864. […] Neisseria gonorrhoeae strain NCCP11945 was used in these experiments. As the previous log reductions, […] were suspended in GC broth. The cell suspension was centrifuged to remove the culture medium and the bacteria resuspended in the tear fluid. This was then added to the concentrated organic acid candidates. The cells were then counted again after two minute exposure to estimate any reduction due to the exposure to the fatty acid.
In a first experiment, the artificial tear fluid formulation includes calcium chloride to mimic the calcium in natural tears. As shown by the results in Figure 8, the anti-gonococcal properties of myristoleic acid (C14:1cΔ9), palmitoleic acid (C16:1cΔ9), linolenic acid (C18:3cΔ9,12,15), and monocaprin(C10) are retained in the artificial tear fluid formulation containing calcium chloride.
In a second experiment, calcium chloride was omitted from the artificial tear fluid formulation. The results in Figure 9 indicate that the anti-gonococcal properties of lauric acid (C12:0), tridecanoic acid (C13:0), and sodium dodecanoate were retained in the artificial tear fluid formulation without.

Setting [9] is: NCCP11945, 2 min, read-out: Log reduction of Neisseria gonorrhoeae, strain NCCP11945, 1 mM, 2 minutes.
Setting [10] is: strain NCCP11945, 1 mM, 2 minutes.
Setting [11] is: bovine RBCs, shaken 1 hour at room temperature, read-out: H50.
Setting [12] is: bovine RBCs, shaken 1 hour at room temperature, read-out: H50 (mg/L).
The mark [13] stands for this setting: at their minimum bactericidal concentration.
Where [14] appears, read: artificial tear fluid without calcium chloride, Figure 9.
[15] abbreviates: 2 min, strain NCCP11945, 1 mM, 2 minutes, read-out: Log reduction of Neisseria gonorrhoeae.
The mark [16] stands for this setting: lowest concentration tested giving an average 4 log10 reduction after two minute exposure, nine isolates.

Converted amounts (≈) assume the structure as drawn. “And” between values parts separate entries of the source, which are not always exact repeats. Equal values may be shown once. Read-outs that look alike come from different tables or passages of the source.

With `CC(C)=O` [Acetone, reference compound], the BCOP classification entry in data set [1] is on record as “Strong irritant”. Further, in data set [2], the “Total Score” value turned out to be 14 and the “Total Score (irritation grade in words)” value is “Severe”.
Turning to `CCCCCCCCCCCC(=O)O` [Lauric acid 12:0, dodecanoic acid], the “Inhibits growth of Neisseria gonorrhoeae” value was “Yes” in data set [3] and “able to inhibit growth” in data set [3] (listed as lauric acid). Besides, the log reduction at 1000 µM in data set [4] (setting [9]) is over 6. In addition, in data set [4] (setting [10]), the “Log reduction of Neisseria gonorrhoeae” value was “able to cause a log reduction”. Moreover, in data set [5], the MBC was determined as 750 µM (≈ 150 µg/mL). For the same compound, the results for the BCOP classification result in data set [1] (listed as Lauric acid) and in data set [1] (listed as lauric acid) were “Non-irritant” and “will not cause irritation”, respectively. Further, the “Total Score” value in data set [2] turned out to be 0. Further, the “Total Score (irritation grade in words)” value in data set [2] (listed as Lauric acid) was “None”. Besides, the HC50 at 1 h lay in the range of 1 to 2 mM in data set [6] (setting [11]) and 200 to 400 mg/L in data set [6] (setting [12]). The “RBC lysis assay prediction of irritation” value in data set [7] (setting [13]) is reported as “not irritating”. For the same compound, the “anti-gonococcal properties in artificial tear fluid” value (“anti-gonococcal properties” for short) in data set [8] (setting [14]) was “retained”.
Consider `CCCC/C=C\CCCCCCCC(=O)O` [Myristoleic acid 14:1 cΔ9, (Z)-tetradec-9-enoic acid], for which the figures for the “Inhibits growth of Neisseria gonorrhoeae” value in data set [3] and in data set [3] (listed as myristoleic acid) were “Yes” and “able to inhibit growth”, respectively. For the same compound, in data set [4] (setting [15]), the log reduction at 1000 µM is over 6. Further, the “Log reduction of Neisseria gonorrhoeae” value in data set [4] (setting [10]) is recorded as “able to cause a log reduction”. Moreover, in data set [5] (setting [16]), the MBC worked out at 500 µM (≈ 113 µg/mL). Besides, the figures for the HC50 at 1 h in data set [6] (setting [11]) and in data set [6] (setting [12]) were 2.6 to 3.5 mM and 600 to 800 mg/L, respectively. Also, in data set [7] (setting [13]), the “RBC lysis assay prediction of irritation” value is “not irritating”. Besides, in data set [8] (artificial tear fluid containing calcium chloride, Figure 8), the “anti-gonococcal properties” value is “retained”.
In the case of `CCCCCCCCCCCC(=O)[O-].[Na+]` [Sodium dodecanoate], the “Inhibits growth of Neisseria gonorrhoeae” value is listed as “Yes” in data set [3] and “able to inhibit growth” in data set [3] (listed as sodium dodecanoate). In data set [4] (setting [9]), the log reduction at 1000 µM was over 6. The “Log reduction of Neisseria gonorrhoeae” value in data set [4] (setting [10]) is “able to cause a log reduction”. The MBC in data set [5] worked out at 750 µM. In data set [6] (bovine), the HC50 at 1 h was 200 µg/mL to 400 µg/mL and 900 µM to 1.8 mM. Further, the “RBC lysis assay prediction of irritation” value in data set [7] is listed as “not irritating”. For the same compound, the “anti-gonococcal properties” value in data set [8] (setting [14]) was “retained”.
On to `CCCCCCCCCCCCC(=O)O` [Tridecanoic acid 13:0, Tridecanoic acid], for which the entries for the “Inhibits growth of Neisseria gonorrhoeae” value in data set [3] and in data set [3] (listed as tridecanoic acid) were “Yes” and “able to inhibit growth”, respectively. In addition, in data set [4] (setting [15]), the log reduction at 1000 µM is over 6. Moreover, the “Log reduction of Neisseria gonorrhoeae” value in data set [4] (setting [10]) is recorded as “able to cause a log reduction”. The MBC in data set [5] (setting [16]) worked out at 750 µM (≈ 161 µg/mL). Besides, the HC50 at 1 h is over 4.67 mM in data set [6] (setting [11]) and over 1000 mg/L in data set [6] (setting [12]). The “RBC lysis assay prediction of irritation” value in data set [7] was “not irritating”. The “anti-gonococcal properties” value in data set [8] (setting [14]) is on record as “retained”.
